According to paper PMC12332157, “A preclinical study on the influence of linkers in [^68Ga]Ga-NOTA-X-RM26 radiotracers for PET imaging of GRPR expression” (EJNMMI Research, 2025):
Where two headings read alike, the source gives them in different places. One block for each molecule: values may come before it. Starred links: 1 amine or outer side, 2 acyl side, 3 side chain; linkers in the order of their positions; H or OH if unused. Non-standard residues stand in square brackets, D forms with d. Residues, ends and D or L forms follow the SMILES beside them. *: point of attachment. NOTA = O=C(O)CN1CCN(CC(=O)O)CCN(CC(=O)*)CC1; Sta = CC(C)C[C@H](N)[C@@H](O)CC(=O)O; X2 = O=C(COc1cccc(CN[*:1])c1)[*:2]; X1 = O=C(Cc1ccccc1CCN[*:1])[*:2]; X3 = O=C(COc1ccccc1CN[*:1])[*:2]

Columns and labels:
[1] = tested on: PC-3 xenograft bearing BALB/c nu/nu mice; test: Biodistribution in BALB/c nu/nu mice bearing PC-3 xenografts; type: in vivo; details: 2 h p.i.
Experimental: (§1) Female BALB/c nu/nu mice of 18–22 g weight were used in the study. All procedures with animals were conducted in accordance with the EU Directive 2010/63/EU for animal experiments and Swedish national legislation concerning the protection of laboratory animals. The experiments were approved by the ethics committee for animal research in Uppsala (Sweden) with permit number 5.8.18–00473/2021. Animals were housed in individually ventilated cages, under a 12-h light/dark cycle with free access to food and water.
(§2) For tumor inoculation, 8·10^6 PC-3 cells in 100 µL PBS were injected subcutaneously into the right hind leg of mice. Mouse weight and tumor size were measured every 2–3 days, and tumor volume was estimated by ellipsoid approximation. A predefined humane endpoint of the experiment was either a 15% weight loss or a tumor volume of 1000 mm^3, neither of which was reached.
(§3) Four weeks after tumor cell implantation, mice were randomized and divided into 6 groups (4 animals / group): 3 of them received treatment with ^68Ga-radiolabeled peptides, while the other 3 received the same peptides in addition to 5 nmol of non-labeled NOTA-PEG2-RM26 peptide for GRPR-blocking. Peptides were injected intravenously via the tail veins at a dose of 50 pmol (700 kBq radioactivity dose).
(§4) At 2 h post injection, mice were sacrificed by overdose of Ketamine/Xylazine anesthesia, and blood was collected by heart puncture. Then, liver, spleen, lungs, pancreas, kidneys, small intestine, stomach, tail, femur bones, tumor and muscle from the opposite legs were collected, weighed, and radioactivity was measured using a Wizard 2480 gamma counter. Data are presented as percentages of injected activity per gram of tissue (%IA/g).

[2] = Complex stability of 68Ga-labeled peptides in PBS or EDTA solution in PBS (iTLC); type: physicochemical; details: n = 3, mean ± sd
[3] = Octanol-water distribution coefficient (LogD); type: physicochemical; details: n-octanol/PBS; n = 3; mean ± sd
Experimental: Octanol-water distribution coefficient (LogD) was determined by adding 10 pmol of radiopeptide to an Eppendorf tube containing 500 µL of phosphate-buffered saline (PBS) and 500 µL of n-octanol. Each tube was vortexed for 2 min and centrifuged at 6000 g for 5 min. Three 100 µL fractions were collected from each phase, and their radioactivity was measured.

[4] = Biodistribution in BALB/c nu/nu mice bearing PC-3 xenografts; type: in vivo; details: female, BALB/c nu/nu, mouse, iv, total radioactivity
Experimental: as §1, §2, §3, §4

GRPR = biological target: T1, GRPR (Homo sapiens, UniProt P30550); test: Competitive binding against [125I]I-Tyr4-bombesin on PC-3 cells; details: natGa-loaded peptide vs [125I]I-Tyr4-bombesin, 5 h at 4 °C
T1 construct: endogenous in cells; host or cells: PC-3 human prostate cancer cells
Experimental: In short, 30 nmol of the respective peptide was mixed with 10 µL of 9 mM GaCl3, 150 µL of 0.1 M HCl, and 250 µL of 1 M sodium acetate (pH 4.5). The mixture was then incubated at 70 °C for 60 min.
PC-3 cells were seeded in 12-well plates at 10^5 cells per well density and incubated overnight. Then, the media was aspirated, and cells were washed with 500 µL of cold PBS buffer, containing 1% w/v bovine serum albumin (PBS/BSA buffer). Then the cells were treated with 350 µL of cold PBS/BSA buffer, 50 µL of the metalated ligand at different concentrations (from 0 to 1000 nM), and 100 µL of [^125I]I-Tyr^4-bombesin (PerkinElmer, Waltham, MA, USA) in PBS/1% BSA buffer, at 24.6 fmol/well concentration. Cells were incubated for 5 h at 4°C to reach equilibrium of binding. After that, the supernatant was removed, cells were washed with cold PBS buffer containing 1% BSA, and collected using 1 mL of 1 M NaOH heated to 37 °C. The radioactivity was measured by a Wizard 2480 gamma counter (PerkinElmer, Waltham, MA, USA). The experiments were performed in triplicates (n = 3) and the data were fitted to the curves with a nonlinear regression model in GraphPad Prism 7.

T1 sequence (P30550 whole entry): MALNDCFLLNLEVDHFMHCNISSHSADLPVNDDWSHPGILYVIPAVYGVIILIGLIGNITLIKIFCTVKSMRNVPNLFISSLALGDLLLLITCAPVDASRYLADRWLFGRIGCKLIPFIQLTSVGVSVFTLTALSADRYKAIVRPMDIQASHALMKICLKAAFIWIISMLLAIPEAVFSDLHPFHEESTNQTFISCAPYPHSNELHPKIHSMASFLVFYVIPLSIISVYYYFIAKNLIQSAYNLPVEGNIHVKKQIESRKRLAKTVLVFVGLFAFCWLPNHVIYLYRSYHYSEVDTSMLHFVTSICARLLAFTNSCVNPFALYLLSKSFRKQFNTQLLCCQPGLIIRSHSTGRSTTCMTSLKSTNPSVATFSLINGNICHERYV

peptide accumulation in the liver and lungs [1]: lowest activity uptake
tumor-to-liver ratio [1]: best tumor-to-liver ratio
SMILES: CC(=O)N[C@@H](CCCCNC(=O)CN1CCN(CC(=O)O)CCN(CC(=O)O)CC1)C(=O)NCCc1ccccc1CC(=O)N[C@H](Cc1ccccc1)C(=O)N[C@@H](CCC(N)=O)C(=O)N[C@@H](Cc1c[nH]c2ccccc12)C(=O)N[C@@H](C)C(=O)N[C@H](C(=O)NCC(=O)N[C@@H](Cc1c[nH]cn1)C(=O)N[C@@H](CC(C)C)[C@@H](O)CC(=O)N[C@@H](CC(C)C)C(N)=O)C(C)C [NOTA-oET-RM26] (Ac-K(NOTA)[X1][dF]QWAVGH[Sta]L-NH2)

remaining at 1 h, 1 µM ([2]; PBS buffer, pH 7.4, incubation at 37 °C for 1 h in PBS): 91.7 ± 5.1%
Stability in PBS with EDTA ([2]; incubation at 37 °C for 1 h in PBS with 1000-fold molar excess of EDTA, in % (unit assumed)): 91.3 ± 5.2
logD [3]: -0.86 ± 0.02
tissue uptake at 2 h ([4]; blood, 50 pmol, 2 h p.i., i.v., read-out: Radionuclide concentration, Blood): 0.47 ± 0.17 %ID/g
tissue uptake at 2 h ([4]; blood, Blockade (co-injection of NOTA-PEG2-RM26), 2 h, read-out: Radionuclide concentration, Blood): 0.22 ± 0.08 %ID/g
tissue uptake at 2 h ([4]; bone, 50 pmol, 2 h p.i., i.v., read-out: Radionuclide concentration, Bone): 0.34 ± 0.05 %ID/g
tissue uptake at 2 h ([4]; bone, Blockade (co-injection of NOTA-PEG2-RM26), 2 h, read-out: Radionuclide concentration, Bone): 0.23 ± 0.03 %ID/g
tissue uptake dose at 2 h ([4]; carcass, 50 pmol, 2 h p.i., i.v., read-out: Radionuclide quantity, Carcass): 2.9 ± 0.4 %ID
tissue uptake dose at 2 h ([4]; carcass, Blockade (co-injection of NOTA-PEG2-RM26), 2 h, read-out: Radionuclide quantity, Carcass): 5.9 ± 2.7 %ID
tissue uptake dose at 2 h ([4]; gastrointestinal tract, 50 pmol, 2 h p.i., i.v., read-out: Radionuclide quantity, Gastrointestinal tract): 6.5 ± 0.7 %ID
tissue uptake dose at 2 h ([4]; gastrointestinal tract, Blockade (co-injection of NOTA-PEG2-RM26), 2 h, read-out: Radionuclide quantity, Gastrointestinal tract): 4.1 ± 2.1 %ID
tissue uptake at 2 h ([4]; kidneys, 50 pmol, 2 h p.i., i.v., read-out: Radionuclide concentration, Kidneys): 6.3 ± 0.9 %ID/g
tissue uptake at 2 h ([4]; kidneys, Blockade (co-injection of NOTA-PEG2-RM26), 2 h, read-out: Radionuclide concentration, Kidneys): 6.2 ± 1.3 %ID/g
tissue uptake at 2 h ([4]; liver, 50 pmol, 2 h p.i., i.v., read-out: Radionuclide concentration, Liver): 3.5 ± 0.5 %ID/g
tissue uptake at 2 h ([4]; liver, Blockade (co-injection of NOTA-PEG2-RM26), 2 h, read-out: Radionuclide concentration, Liver): 1.4 ± 0.4 %ID/g
tissue uptake at 2 h ([4]; lungs, 50 pmol, 2 h p.i., i.v., read-out: Radionuclide concentration, Lungs): 5.7 ± 1.5 %ID/g
tissue uptake at 2 h ([4]; lungs, Blockade (co-injection of NOTA-PEG2-RM26), 2 h, read-out: Radionuclide concentration, Lungs): 3.5 ± 2.2 %ID/g
tissue uptake at 2 h ([4]; muscle, 50 pmol, 2 h p.i., i.v., read-out: Radionuclide concentration, Muscle): 0.16 ± 0.05 %ID/g
tissue uptake at 2 h ([4]; muscle, Blockade (co-injection of NOTA-PEG2-RM26), 2 h, read-out: Radionuclide concentration, Muscle): 0.21 ± 0.09 %ID/g
tissue uptake at 2 h ([4]; pancreas, 50 pmol, 2 h p.i., i.v., read-out: Radionuclide concentration, Pancreas): 21 ± 5.2 %ID/g
tissue uptake at 2 h ([4]; pancreas, Blockade (co-injection of NOTA-PEG2-RM26), 2 h, read-out: Radionuclide concentration, Pancreas): 2.5 ± 0.6 %ID/g
tissue uptake at 2 h ([4]; small intestine, 50 pmol, 2 h p.i., i.v., read-out: Radionuclide concentration, Small Intestines): 3.4 ± 1.3 %ID/g
tissue uptake at 2 h ([4]; small intestine, Blockade (co-injection of NOTA-PEG2-RM26), 2 h, read-out: Radionuclide concentration, Small Intestines): 0.61 ± 0.13 %ID/g
tissue uptake at 2 h ([4]; spleen, 50 pmol, 2 h p.i., i.v., read-out: Radionuclide concentration, Spleen): 1.2 ± 0.3 %ID/g
tissue uptake at 2 h ([4]; spleen, Blockade (co-injection of NOTA-PEG2-RM26), 2 h, read-out: Radionuclide concentration, Spleen): 0.37 ± 0.08 %ID/g
tissue uptake at 2 h ([4]; stomach, 50 pmol, 2 h p.i., i.v., read-out: Radionuclide concentration, Stomach): 3.5 ± 0.7 %ID/g
tissue uptake at 2 h ([4]; stomach, Blockade (co-injection of NOTA-PEG2-RM26), 2 h, read-out: Radionuclide concentration, Stomach): 1.1 ± 0.7 %ID/g
tissue uptake dose at 2 h ([4]; total (sum of the measured activities), 50 pmol, 2 h p.i., i.v., sum of the measured activities, read-out: Radionuclide quantity, Total): 19.8 ± 2.6 %ID
tissue uptake dose at 2 h ([4]; total, Blockade (co-injection of NOTA-PEG2-RM26), 2 h, read-out: Radionuclide quantity, Total): 15.7 ± 2.9 %ID
tissue uptake at 2 h ([4]; tumor (PC-3 xenograft), 50 pmol, 2 h p.i., i.v., PC-3 xenograft, read-out: Radionuclide concentration, Tumor): 10.2 ± 2.7 %ID/g
tissue uptake at 2 h ([4]; tumor (PC-3 xenograft), Blockade (co-injection of NOTA-PEG2-RM26), 2 h, read-out: Radionuclide concentration, Tumor): 1 ± 0.4 %ID/g
SMILES: CC(=O)N[C@@H](CCCCNC(=O)CN1CCN(CC(=O)O)CCN(CC(=O)O)CC1)C(=O)NCc1ccccc1OCC(=O)N[C@H](Cc1ccccc1)C(=O)N[C@@H](CCC(N)=O)C(=O)N[C@@H](Cc1c[nH]c2ccccc12)C(=O)N[C@@H](C)C(=O)N[C@H](C(=O)NCC(=O)N[C@@H](Cc1c[nH]cn1)C(=O)N[C@@H](CC(C)C)[C@@H](O)CC(=O)N[C@@H](CC(C)C)C(N)=O)C(C)C [[^68Ga]Ga-NOTA-oMA-RM26, metal not drawn] (Ac-K(NOTA)[X3][dF]QWAVGH[Sta]L-NH2)

IC50 (GRPR): 0.27 nM
SMILES: CC(=O)N[C@@H](CCCCNC(=O)CN1CCN(CC(=O)O)CCN(CC(=O)O)CC1)C(=O)NCc1cccc(OCC(=O)N[C@H](Cc2ccccc2)C(=O)N[C@@H](CCC(N)=O)C(=O)N[C@@H](Cc2c[nH]c3ccccc23)C(=O)N[C@@H](C)C(=O)N[C@H](C(=O)NCC(=O)N[C@@H](Cc2c[nH]cn2)C(=O)N[C@@H](CC(C)C)[C@@H](O)CC(=O)N[C@@H](CC(C)C)C(N)=O)C(C)C)c1 [^natGa-NOTA-mMA-RM26, metal not drawn] (Ac-K(NOTA)[X2][dF]QWAVGH[Sta]L-NH2)

IC50 (GRPR): 3.4 nM
SMILES: CC(=O)N[C@@H](CCCCNC(=O)CN1CCN(CC(=O)O)CCN(CC(=O)O)CC1)C(=O)NCCc1ccccc1CC(=O)N[C@H](Cc1ccccc1)C(=O)N[C@@H](CCC(N)=O)C(=O)N[C@@H](Cc1c[nH]c2ccccc12)C(=O)N[C@@H](C)C(=O)N[C@H](C(=O)NCC(=O)N[C@@H](Cc1c[nH]cn1)C(=O)N[C@@H](CC(C)C)[C@@H](O)CC(=O)N[C@@H](CC(C)C)C(N)=O)C(C)C [^natGa-NOTA-oET-RM26, metal not drawn] (Ac-K(NOTA)[X1][dF]QWAVGH[Sta]L-NH2)

IC50 (GRPR): 1.3 nM
SMILES: CC(=O)N[C@@H](CCCCNC(=O)CN1CCN(CC(=O)O)CCN(CC(=O)O)CC1)C(=O)NCc1ccccc1OCC(=O)N[C@H](Cc1ccccc1)C(=O)N[C@@H](CCC(N)=O)C(=O)N[C@@H](Cc1c[nH]c2ccccc12)C(=O)N[C@@H](C)C(=O)N[C@H](C(=O)NCC(=O)N[C@@H](Cc1c[nH]cn1)C(=O)N[C@@H](CC(C)C)[C@@H](O)CC(=O)N[C@@H](CC(C)C)C(N)=O)C(C)C [^natGa-NOTA-oMA-RM26, metal not drawn] (Ac-K(NOTA)[X3][dF]QWAVGH[Sta]L-NH2)
